Three compounds from patent publication US4104390A, “Thieno [2,3-c] and [3,2-c] pyridines” (Parcor, priority 1976, dated 1978) can be followed below.

A short description of data set [1]: LD50, intravenous route, mice. The settings on record: mouse, in vivo.
Data set [2] has as its system collagen-induced blood-platelet aggregation. The experiment in a line: Collagen-induced blood-platelet aggregation. In kind it is in vivo, Wistar rats. The settings on record: Rattus norvegicus, po; rats, 100 mg/kg orally, 3 hours after treatment, collagen (bovine tendon extract), with respect to control group; read-out: Percent inhibition of blood-platelet aggregation, Collagen. The protocol: (§1) Blood is taken from the jugular vein of Wistar rats. From this citrated blood, and after centrifugation, is reconstituted a plasma containing 600,000 ± 20,000 blood-platelets per ml which is used in all aggregation determinations.
(§2) 0.4 ml plasma is placed in a siliconized tube provided with a magnet bar, also siliconized. The tube is introduced into an aggregometer coupled with an apparatus for recording optical density variations. When light transmission has reached a stable value, 0.5 ml of a solution containing 10 μM A.D.P. (Adenosine-Di-Phosphate) is introduced into the tube.
(§3) Blood-platelet aggregation causes an increase of light transmission followed by a decrease subsequent to the deaggregation phase.
(§4) The maximal optical density variation thus determined characterizes the intensity of the aggregation.
The A.D.P. solution is substituted with a collagen solution (bovine tendon extract).
(§5) Different groups of 20 rats are used, each group being orally administered a test derivative at a dosage of 100 mg/kg.

Data set [3] has as its system ovalbumen-induced systemic edema. The experiment in a line: Ovalbumen-induced systemic edema method. In kind it is in vivo. The settings on record: Rattus norvegicus, po, rats, 100 mg/kg orally 1 hour before and with ovalbumen. The protocol: (b) Ovalbumen-induced systemic edema method
Simultaneous injection of 1 ml ovalbumen and 0.5 ml of a 1% aqueous Evans Blue solution is effected in rats. On the other hand, the animals of the treated group are administered orally 100 mg/kg of the test derivative one hour prior to ovalbumen administration and simultaneously with said administration. The intensity of the phenomenon thus induced is scored according to a scale from 1 to 5 depending on the progress of the inflammatory syndrome. The mean intensity of the edem and the percent decrease of the edema reaction with respect to the control group are thus determined as a function of time.

Data set [4] has as its system carrageenin-induced localized edema. The experiment in a line: Carrageenin-induced localized edema method. Format: in vivo. Particulars: Rattus norvegicus, po, rats, 100 mg/kg orally at -1, 0, 1 and 2.5 hours. As for the experimental part:
(a) Carrageenin-induced localized edema method
0.1 ml of a 1% carrageenin solution is injected in the metatarsal flexor muscles of the right hind limb of rats at time 0. The animals of the treated group are additionally orally administered 100 mg/kg of the test derivative, respectively one hour prior to injection of the phlogogenic agent, simultaneously with said injection, and then 1 hour and 2.5 hours thereafter. The determinations effected by means of a ROCH micrometer at times 0, 1 hour, 2 hours, 3 hours and 5 hours after carrageenin administration make it possible to determine, as a function of time, the percent anti-inflammatory activity with respect to the reference group.

The test system of data set [5] is A.D.P.-induced blood-platelet aggregation. The experiment in a line: A.D.P.-induced blood-platelet aggregation. In kind it is in vivo, Wistar rats. Particulars: Rattus norvegicus, po; rats, 100 mg/kg orally, 3 hours after treatment, 10 μM A.D.P. solution, with respect to control group; read-out: Percent inhibition of blood-platelet aggregation, A.D.P. The protocol:
as §1, §2, §3, §4, §5

The mark [6] stands for this setting: 2 hours after ovalbumen, read-out: Percent anti-inflammatory activity after 2 hours.
[7] abbreviates: 3 hours after ovalbumen, read-out: Percent anti-inflammatory activity after 3 hours.
Setting [8] is: 1 hour after carrageenin, read-out: Percent anti-inflammatory activity after 1 hour.
Where [9] appears, read: 2 hours after carrageenin, read-out: Percent anti-inflammatory activity after 2 hours.
The mark [10] stands for this setting: 3 hours after carrageenin, read-out: Percent anti-inflammatory activity after 3 hours.
The mark [11] stands for this setting: 5 hours after carrageenin, read-out: Percent anti-inflammatory activity after 5 hours.

The structures appear in SMILES notation. Like-named read-outs stand apart in the source and are kept apart here.

Consider `CC1NCc2sccc2C1c1ccccc1` (stereo not drawn) [derivative n°1, 5-Methyl-4-phenyl-4,5,6,7-tetrahydro-thieno[2,3-c]pyridine], for which the LD50 (as a rule, the dose at which mortality reaches 50%) at 24 h in data set [1] is 63 mg/kg. Also, the results for the inhibition at 100 mg/kg in data set [2] and in data set [5] were 96.2% and 64.9%, respectively. Further, the inhibition in vivo at 100 mg/kg in data set [3] (setting [6]) stood at 47%; in data set [3] (setting [7]) it was 54%; in data set [4] (setting [8]) it was 37%; in data set [4] (setting [9]), 43%; in data set [4] (setting [10]), 45%; in data set [4] (setting [11]), 47%.
In data set [1], `c1ccc(C2CNCc3sccc32)cc1` (stereo not drawn) [derivative n°3, 4-Phenyl-4,5,6,7-tetrahydro-thieno[2,3-c]pyridine] had an LD50 at 24 h of 69 mg/kg. Besides, the values for the inhibition at 100 mg/kg in data set [2] and in data set [5] were 95.6% and 64.1%, respectively. Further, the inhibition in vivo at 100 mg/kg stood at 52% in data set [3] (setting [6]); 59% in data set [3] (setting [7]); 41% in data set [4] (setting [8]); 46% in data set [4] (setting [9]); 50% in data set [4] (setting [10]); 51% in data set [4] (setting [11]).
In data set [1], `CN1Cc2sccc2C(c2ccccc2)C1` (stereo not drawn) [derivative n°5, 6-Methyl-4-phenyl-4,5,6,7-tetrahydro-thieno[2,3-c]pyridine] had an LD50 at 24 h of 61 mg/kg. For the same compound, the values for the inhibition at 100 mg/kg in data set [2] and in data set [5] were 93.8% and 63.6%, respectively. For the same compound, the inhibition in vivo at 100 mg/kg in data set [3] (setting [6]) stood at 44%; in data set [3] (setting [7]), 51%; in data set [4] (setting [8]), 37%; in data set [4] (setting [9]), 45%; in data set [4] (setting [10]), 50%; in data set [4] (setting [11]), 51%.
